In ChEMBL document CHEMBL1201862, “PubChem BioAssay data set” (2004):
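48-hour exposure; five concentrations; linearly interpolated endpoints. Abbreviation: GI50, concentration required for 50% inhibition of growth.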 Active and inactive are the calls of the source. No stated cut-off is given here; in the data, active = GI50 up to about 1.1 µM and inactive = higher.

What was measured:
Test in all cases: NCI anticancer screen, dose series, 48 h
OVCAR-3 = tested on: OVCAR-3
UACC-62 = tested on: UACC-62
NCI-H522 = tested on: NCI-H522
OVCAR-8 = tested on: OVCAR-8
SN12C = tested on: SN12C
HCC 2998 = tested on: HCC 2998
DLD-1 = tested on: DLD-1
A498 = tested on: A498
ACHN = tested on: ACHN
SF-539 = tested on: SF-539
NCI-H23 = tested on: NCI-H23
HT-29 = tested on: HT-29
SR = tested on: SR
U-251 = tested on: U-251
SK-OV-3 = tested on: SK-OV-3
HCT-116 = tested on: HCT-116
RXF 393 = tested on: RXF 393
NCI-H226 = tested on: NCI-H226
Malme-3M = tested on: Malme-3M
SF-268 = tested on: SF-268
UACC-257 = tested on: UACC-257
HOP-62 = tested on: HOP-62
SNB-75 = tested on: SNB-75
SK-MEL-28 = tested on: SK-MEL-28
M19-MEL = tested on: M19-MEL
HCT-15 = tested on: HCT-15
SNB-19 = tested on: SNB-19
EKVX = tested on: EKVX
OVCAR-4 = tested on: OVCAR-4
DMS-114 = tested on: DMS-114
XF498 = tested on: XF498
SNB-78 = tested on: SNB-78
MOLT-4 = tested on: MOLT-4
786-0 = tested on: 786-0
UO-31 = tested on: UO-31
RPMI-8226 = tested on: RPMI-8226
KM-20L2 = tested on: KM-20L2
TK-10 = tested on: TK-10
LOX IMVI = tested on: LOX IMVI
HL-60 = tested on: HL-60
M14 = tested on: M14
SF-295 = tested on: SF-295
DMS-273 = tested on: DMS-273
K562 = tested on: K562
CCRF-CEM = tested on: CCRF-CEM
LXFL 529 = tested on: LXFL 529
SK-MEL-5 = tested on: SK-MEL-5
COLO 205 = tested on: COLO 205
NCI-H460 = tested on: NCI-H460
HOP-18 = tested on: HOP-18
A549 = tested on: A549
KM12 = tested on: KM12
SW-620 = tested on: SW-620
IGROV-1 = tested on: IGROV-1

## Cc1cccc(C)c1NC(=O)CCCC(=O)C1CC(=O)CCC1=O (stereo not drawn)
OVCAR-3
  GI50: > 100 µM (inactive)
UACC-62
  GI50: > 100 µM (inactive)
NCI-H522
  GI50: > 100 µM (inactive)
OVCAR-8
  GI50: > 100 µM (inactive)
SN12C
  GI50: > 100 µM (inactive)
HCC 2998
  GI50: > 100 µM (inactive)
DLD-1
  GI50: > 100 µM (inactive)
A498
  GI50: > 100 µM (inactive)
ACHN
  GI50: > 100 µM (inactive)
SF-539
  GI50: > 100 µM (inactive)
NCI-H23
  GI50: > 100 µM (inactive)
HT-29
  GI50: > 100 µM (inactive)
SR
  GI50: > 100 µM (inactive)
U-251
  GI50: > 100 µM (inactive)
SK-OV-3
  GI50: > 100 µM (inactive)
HCT-116
  GI50: > 100 µM (inactive)
RXF 393
  GI50: > 100 µM (inactive)
NCI-H226
  GI50: > 100 µM (inactive)
Malme-3M
  GI50: > 100 µM (inactive)
SF-268
  GI50: > 100 µM (inactive)
UACC-257
  GI50: > 100 µM (inactive)
HOP-62
  GI50: > 100 µM (inactive)
SNB-75
  GI50: > 100 µM (inactive)
SK-MEL-28
  GI50: > 100 µM (inactive)
M19-MEL
  GI50: > 100 µM (inactive)
HCT-15
  GI50: > 100 µM
SNB-19
  GI50: > 100 µM (inactive)
EKVX
  GI50: > 100 µM (inactive)
OVCAR-4
  GI50: > 100 µM (inactive)
DMS-114
  GI50: > 100 µM (inactive)
XF498
  GI50: > 100 µM (inactive)
SNB-78
  GI50: > 100 µM (inactive)
MOLT-4
  GI50: > 100 µM (inactive)
786-0
  GI50: > 100 µM (inactive)
UO-31
  GI50: > 100 µM (inactive)
RPMI-8226
  GI50: > 100 µM (inactive)
KM-20L2
  GI50: > 100 µM (inactive)

## COc1ccccc1NC(=O)CC(=O)NNCC(=O)Nc1nc(-c2ccccc2)cs1
OVCAR-3
  GI50: > 100 µM (inactive)
TK-10
  GI50: > 100 µM (inactive)
UACC-62
  GI50: > 100 µM (inactive)
LOX IMVI
  GI50: > 100 µM (inactive)
NCI-H522
  GI50: > 100 µM (inactive)
OVCAR-8
  GI50: > 100 µM (inactive)
SN12C
  GI50: > 100 µM (inactive)
HCC 2998
  GI50: 4.1 µM (inactive)
HL-60
  GI50: > 100 µM (inactive)
M14
  GI50: > 100 µM (inactive)
DLD-1
  GI50: > 100 µM (inactive)
SF-539
  GI50: > 100 µM (inactive)
SF-295
  GI50: > 100 µM (inactive)
DMS-273
  GI50: > 100 µM (inactive)
NCI-H23
  GI50: > 100 µM (inactive)
K562
  GI50: > 100 µM (inactive)
CCRF-CEM
  GI50: > 100 µM (inactive)
HT-29
  GI50: > 100 µM (inactive)
LXFL 529
  GI50: > 100 µM (inactive)
U-251
  GI50: > 100 µM (inactive)
SK-MEL-5
  GI50: > 100 µM (inactive)
SK-OV-3
  GI50: > 100 µM (inactive)
HCT-116
  GI50: > 100 µM (inactive)
RXF 393
  GI50: > 100 µM (inactive)
NCI-H226
  GI50: 40.6 µM (inactive)
SF-268
  GI50: > 100 µM (inactive)
COLO 205
  GI50: > 100 µM (inactive)
HOP-62
  GI50: > 100 µM (inactive)
SNB-75
  GI50: > 100 µM (inactive)
SK-MEL-28
  GI50: > 100 µM (inactive)
NCI-H460
  GI50: > 100 µM (inactive)
M19-MEL
  GI50: > 100 µM (inactive)
SNB-19
  GI50: > 100 µM (inactive)
HOP-18
  GI50: > 100 µM (inactive)
EKVX
  GI50: > 100 µM (inactive)
A549
  GI50: > 100 µM (inactive)
OVCAR-4
  GI50: > 100 µM (inactive)
DMS-114
  GI50: > 100 µM (inactive)
SNB-78
  GI50: > 100 µM (inactive)
MOLT-4
  GI50: > 100 µM (inactive)
KM12
  GI50: > 100 µM (inactive)
786-0
  GI50: > 100 µM (inactive)
SW-620
  GI50: > 100 µM (inactive)
RPMI-8226
  GI50: > 100 µM (inactive)
IGROV-1
  GI50: > 100 µM (inactive)
KM-20L2
  GI50: > 100 µM (inactive)
